According to US12227713B2, “Polysiloxane hydraulic fluids” (THE BOEING COMPANY, priority 2016, dated 2025):

Assay: Viscosity (ASTM D445)
Type: physicochemical
Text: The viscosity may be determined using the protocol in ASTM D445, and for example ASTM D445FL1 for low temperature measurements.

SMILES | 38 C. Viscosity (cP) | Room Temp (25 C.) Viscosity (cP) | −54 C. Viscosity (cP)
CCCCCCCCCCP(=O)(OCCCC)OCCCC [DiButyl Decane Phosphonate (AP32), DiButyl Decane Phosphonate] | 4.91 ± 0.01 | 6.97 ± 001 | 706.2 ± 5.4 cP
CCCCCCCCCCP(=O)(OCC)OCC [DiEthyl Decane Phosphonate (AP28), DiEthyl Decane Phosphonate] | 4.89 ± 0.01 | 7.02 ± 0.04 | Frozen <3 hr
